From patent US20230312564A1, “AROMATIC RING-LACTAM COMPOUND, PREPARATION METHOD THEREFOR AND USE THEREOF” (SHANGHAI RINGENE BIOPHARMA CO., LTD., priority 2020, published 2023) come the findings set out here.

Molecules are shown by their SMILES. “And” between values parts separate entries of the source, which are not always exact repeats. Equal entries are not always repeated. Where two headings read alike, the source gives them in different places.

A word on the IC50: it is the midpoint of a concentration-inhibition curve.

Data set [1] relates to Colo-205 cells. The data set can be described thus: Colo-205 tumor cell proliferation, CCK-8, 72 hours. It is filed as cell-based. Conditions: for IC50: read-out: Colo-205 IC50; for cell proliferation inhibitory activity (in words): Colo-205. The protocol:
1. Test method: Colo-205 cells (ATCC) in logarithmic growth phase were inoculated into a 96-well culture plate at an appropriate density with 90 μL per well. After overnight culture, different concentrations of the compound were added and acted for 72 hours, and a solvent control group (negative control) was set. After the compound was acted on cells for 72 hours, the effect of the compound on cell proliferation was detected by the cell counting kit CCK-8 (Dojindo), and 10 μL of CCK-8 reagent was added to each well. After the plate was placed in a 37° C. incubator for 2 to 4 hours, a full-wavelength microplate reader SpectraMax 190 was adopted for obtaining the readings with a measured wavelength of 450 nm. […] The IC50 value was obtained by four-parameter regression with the software attached to the microplate reader.

A short description of data set [2]: Liver microsomal metabolic stability, dog. It is filed as in vitro ADME. Particulars: 0.5 mg/mL microsomes, 1 μM compound, NADPH; for half-life at 1 μM: liver microsomes, read-out: Liver microsomal stability T1/2. The protocol:
(§1) The reaction was stopped with tinidazole-containing acetonitrile at 0 min, 5 min, 10 min and 30 min, respectively. After vortexing for 10 min and centrifuging at 15,000 rmp for 10 min, 50 μL of the supernatant was injected into a 96-well plate. The metabolic stability of the compound was calculated by determining the relative reduction of the drug, calculated as half-life T1/2.
(In general: Liver microsomes are a subcellular fraction often used to study metabolism.)

A short description of data set [3]: Liver microsomal metabolic stability, human. Type of data set: in vitro ADME. Conditions: 0.5 mg/mL microsomes, 1 μM compound, NADPH; for half-life at 1 μM: liver microsomes, read-out: Liver microsomal stability T1/2. The protocol:
as §1

The nature of data set [4]: Liver microsomal metabolic stability, rat. Type of data set: in vitro ADME. Particulars: 0.5 mg/mL microsomes, 1 μM compound, NADPH; for half-life at 1 μM: liver microsomes, read-out: Liver microsomal stability T1/2. The protocol:
as §1

The nature of data set [5]: Liver microsomal metabolic stability, mouse. Conditions: 0.5 mg/mL microsomes, 1 μM compound, NADPH; for half-life at 1 μM: liver microsomes, read-out: Liver microsomal stability T1/2. Type of data set: in vitro ADME. The protocol:
as §1

For data set [6], the target named is T1, ERK1/2 kinase.
T1 construct: fused on or other part: Carna's ERK products carry a GST tag by vendor knowledge
The data set can be described thus: ERK1/2 kinase (Carna) inhibitory activity, Caliper mobility shift. Type of data set: biochemical. Particulars: for IC50: numeric values, read-out: ERK½ IC50. The protocol:
(1) Preparation of 1×Kinase buffer; (2) preparation of compound concentration gradient: the initial test concentration of the tested compound was 10 μM, which was 3-fold diluted to 10 concentrations, and a duplicate test was conducted, and then the tested compound was diluted in a 96 well plate to a 100-fold final concentration of 10 different concentrations of solution. […] Log (inhibitor) vs. response—Variable slope of the analysis software GraphPad Prism 5 was used to fit the dose-effect curve to obtain the IC50 value of each compound on the enzyme activity.
2. […] (A<10 nM, 10 nM≤B<200 nM, C≥200 nM)

Data set [7] is described as follows: Liver microsomal stability, comparisons in words across species. Type of data set: in vitro ADME. Particulars: for stability of different kinds of liver microsomes (in words): different species, versus the comparative compounds. The protocol:
as §1

Where [8] appears, read: Homo sapiens, COLO 205, 72 hours, CCK-8, numeric values.
[9] abbreviates: rat, dog and human, compared with the comparative compound 1.
[10] abbreviates: 72 hours, CCK-8, numeric values.

With `Cc1cccc([C@@H](CO)NC(=O)[C@@H](C)N2Cc3c(F)cc(-c4nc(NC5CCOCC5)ncc4Cl)cc3C2=O)c1` [Comparative compound 4, (R)-2-(6-(5-Chloro-2-((tetrahydro-2H-pyran-4-yl)amino)pyrimidin-4-yl)-4-fluoro-1-oxoisoindolin-2-yl)-N—((S)-2-hydroxy-1-(m-tolyl)ethyl)propanamide, reference compound], the 50% inhibitory concentration (IC50) in data set [1] (Homo sapiens, COLO 205, 72 h) was 37.8 nM. For the same molecule, the half-life at 1 μM in data set [2] is 60 min; in data set [3], 3 min; in data set [4], 3 min.

With `COc1cc(F)cc([C@@H](CO)NC(=O)[C@@H](C)N2Cc3ccc(-c4nc(NC5CCOCC5)ncc4Cl)cc3C2=O)c1` [Comparative compound 5, (R)-2-(6-(5-Chloro-2-((tetrahydro-2H-pyran-4-yl)amino)pyrimidin-4-yl)-1-oxoisoindolin-2-yl)-N—((S)-1-(3-fluoro-5-methoxyphenyl)-2-hydroxyethyl)propanamide, reference compound], the half-life at 1 μM is 41 min in data set [2], 3 min in data set [3], 3 min in data set [4] and 15 min in data set [5].

Regarding `C[C@H](C(=O)N[C@H](CO)c1cccc(Cl)c1)N1Cc2ccc(-c3nc(NC4CCOCC4)ncc3Cl)nc2C1=O` [Embodiment 21], the IC50 in data set [1] (setting [8]) was 90.9 nM; in data set [6] it was 5.3 nM. In addition, the half-life at 1 μM in data set [2] is 78 min; in data set [3] it was 62 min; in data set [4], 13 min; in data set [5], 234 min. In addition, the “stability of different kinds of liver microsomes (in words)” value in data set [7] is given as “significant advantages”.

As to `Cc1cccc([C@@H](CO)NC(=O)[C@@H](C)N2Cc3ccc(-c4nc(NC5CCOCC5)ncc4Cl)c(F)c3C2=O)c1` [Embodiment 25], the IC50 in data set [1] (72 hours, CCK-8, class symbols) is < 100 nM; in data set [6] it was 0.7 nM. Also, the “Liver microsomal stability T1/2” value in data set [2] is 60 min and 70 min; in data set [3] it was 18 min; in data set [4], 10 min and 15 min. Besides, in data set [6], the “enzyme inhibitory activity (in words)” value is on record as “extremely strong enzyme inhibitory activity”. Moreover, the “stability in liver microsomes (in words)” value is “significantly improved” in data set [7] (rat and human, compared with the comparative compounds 1 and 4); “significantly improved” in data set [7] (setting [9]).

Consider `C[C@H](C(=O)N[C@H](CO)c1cccc(Cl)c1)N1Cc2ccc(-c3nc(NC4CCOCC4)ncc3Cl)c(F)c2C1=O` [Embodiment 34], for which the IC50 in data set [1] (setting [10]) came to 34.3 nM; in data set [6], 0.8 nM. Also, in data set [1], the “cell proliferation inhibitory activity (in words)” value is “strong cell proliferation inhibitory activity”. Besides, the “Liver microsomal stability T1/2” value in data set [2] turned out to be 75 min; in data set [3], 18 min; in data set [4], 19 min; in data set [5], 12 min. Moreover, the “stability of different kinds of liver microsomes (in words)” value in data set [7] is “significant advantages”.

As to `C[C@H](C(=O)N[C@H](CO)c1cccc(Cl)c1)N1Cc2ccc(-c3ccnc(Nc4ccnn4C)c3)cc2C1=O` [compound 2, (R)—N—((S)-1-(3-Chlorophenyl)-2-hydroxyethyl)-2-(6-(2-((1-methyl-1H-pyrazol-5-yl)amino)pyridin-4-yl)-1-oxoisoindolin-2-yl)propanamide, reference compound], the IC50 in data set [1] (setting [10]) was 88.6 nM; in data set [1] (setting [8]), 354 nM. Also, the “cell proliferation inhibitory activity (in words)” value in data set [1] was “strong cell proliferation inhibitory activity”. For the same molecule, the figures for the “Liver microsomal stability T1/2” value in data set [2], in data set [3] and in data set [4] were 403 min, 15 min and 18 min, respectively. In data set [6], the “enzyme inhibitory activity (in words)” value is on record as “extremely strong enzyme inhibitory activity”. The “stability in liver microsomes (in words)” value in data set [7] (setting [9]) is on record as “significantly improved”; in data set [7] (rat, dog and human, compared with the comparative compounds 1 and 3), “significantly improved”.
